From article PMC5769128, “Human UDP-Glucuronosyltransferase 2B4 and 2B7 Are Responsible for Naftopidil Glucuronidation in Vitro” (Frontiers in Pharmacology, 2018)

Columns and labels:
[1] = target: T1, recombinant human UGT2B4 (Homo sapiens, UniProt P06133); assay: Kinetics of NAF enantiomer glucuronidation by recombinant UGT2B4; format: in vitro ADME
T1 construct: purchased BD Gentest
T1 sequence (P06133 24-528): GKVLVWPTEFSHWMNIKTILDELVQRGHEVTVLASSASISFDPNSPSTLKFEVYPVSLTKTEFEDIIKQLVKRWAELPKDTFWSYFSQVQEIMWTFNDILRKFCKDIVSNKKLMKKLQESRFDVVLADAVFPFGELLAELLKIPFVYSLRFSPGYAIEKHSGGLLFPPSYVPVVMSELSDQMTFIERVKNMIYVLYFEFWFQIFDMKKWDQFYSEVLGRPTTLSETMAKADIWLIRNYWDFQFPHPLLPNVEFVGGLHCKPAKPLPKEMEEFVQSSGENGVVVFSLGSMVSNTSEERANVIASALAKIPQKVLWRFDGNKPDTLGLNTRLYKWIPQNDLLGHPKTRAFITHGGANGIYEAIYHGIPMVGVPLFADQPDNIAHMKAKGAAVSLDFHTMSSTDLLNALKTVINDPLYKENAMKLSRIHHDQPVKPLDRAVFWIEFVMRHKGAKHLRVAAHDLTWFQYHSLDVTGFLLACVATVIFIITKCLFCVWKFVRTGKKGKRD
Experimental: All glucuronidation assays were conducted in an incubation volume of 200 μL. Incubations were performed at 37°C in 50 mM Tris–HCl buffer (pH 7.5) with 10 mM magnesium chloride, 1 mg protein/mL of enzyme (microsomes and recombinant human UGTs), alamethicin (100 μg of alamethicin/mg microsomal protein), and NAF enantiomers (2.5–80 μM). The reaction was initiated by the addition of UDPGA (5 mM) and incubated at 37°C in a shaking water bath for 45 min. The reaction was terminated by the addition of 200 μL of ice-cold acetonitrile containing the IS (1 μM) and then centrifuged at 5000 ×g for 10 min at 4°C. The supernatant fraction was injected into the RRLC-MS/MS apparatus. Protein concentration (0.5–2 mg/mL) and incubation time (15–180 min) were optimized in preliminary studies to be within initial linear rate conditions.
Kinetic parameters were assessed in the HLM, RLM, HKM, RKM, and recombinant human UGTs (UGT2B4, 2B7, and 1A9).

[2] = target: T2, UGT2B17 (Homo sapiens, UniProt O75795); assay: Inhibition screening of recombinant UGTs by NAF enantiomers, UGT2B17 (4-MU); format: in vitro ADME; conditions: recombinant UGT2B17, probe 4-MU, 100 μM NAF enantiomer, read-out: Inhibition of 4-MU-G formation
T2 construct: purchased BD Gentest
T2 sequence (O75795 24-530): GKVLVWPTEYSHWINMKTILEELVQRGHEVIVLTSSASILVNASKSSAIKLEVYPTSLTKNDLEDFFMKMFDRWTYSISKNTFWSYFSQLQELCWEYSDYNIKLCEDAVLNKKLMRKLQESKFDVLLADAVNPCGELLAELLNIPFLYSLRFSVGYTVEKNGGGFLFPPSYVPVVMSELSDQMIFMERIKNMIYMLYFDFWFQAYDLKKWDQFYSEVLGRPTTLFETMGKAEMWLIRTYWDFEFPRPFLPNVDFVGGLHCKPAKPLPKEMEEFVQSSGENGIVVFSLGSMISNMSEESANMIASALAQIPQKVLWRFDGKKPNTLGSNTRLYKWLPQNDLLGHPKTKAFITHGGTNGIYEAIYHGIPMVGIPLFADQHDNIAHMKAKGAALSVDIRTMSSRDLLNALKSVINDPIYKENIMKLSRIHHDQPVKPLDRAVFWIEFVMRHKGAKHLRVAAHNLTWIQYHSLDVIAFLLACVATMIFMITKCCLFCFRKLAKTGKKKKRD
Experimental: The inhibition screening study was performed by investigating the 12 recombinant UGTs with 10 and 100 μM NAF enantiomer. […] 4-MU, as a non-specific substrate, was added to the other incubated samples. Instead of NAF enantiomers, the same volume of water was added to be the control sample. […] The formation of 4-MU-G and TFP-G produced from the 12 incubation system were analyzed by HPLC. The instrument parameters for the LC were as follows: system, Agilent 1260; Agilent Eclipse Plus C18 (2.1 mm × 50 mm, 1.8 μm, Santa Clara, CA, United States); mobile phase, methanol: 0.1% formic acid in water (0–3 min, 35:65; 3.1–4.5 min, 65:35; 4.6–5 min, 35:65); flow rate, 0.4 mL/min; column temperature, 25°C; and injection volume, 2 μL. The retention times of 4-MU, 4-MU-G, TFP, TFP-G, and MU (IS) were 1.5, 0.5, 2.2, 1.8, and 1.0 min, respectively.

[3] = target: T3, UGT2B7 (Homo sapiens, UniProt P16662); conditions: substrate zidovudine, enzyme UGT2B7
T3 sequence (P16662 24-529): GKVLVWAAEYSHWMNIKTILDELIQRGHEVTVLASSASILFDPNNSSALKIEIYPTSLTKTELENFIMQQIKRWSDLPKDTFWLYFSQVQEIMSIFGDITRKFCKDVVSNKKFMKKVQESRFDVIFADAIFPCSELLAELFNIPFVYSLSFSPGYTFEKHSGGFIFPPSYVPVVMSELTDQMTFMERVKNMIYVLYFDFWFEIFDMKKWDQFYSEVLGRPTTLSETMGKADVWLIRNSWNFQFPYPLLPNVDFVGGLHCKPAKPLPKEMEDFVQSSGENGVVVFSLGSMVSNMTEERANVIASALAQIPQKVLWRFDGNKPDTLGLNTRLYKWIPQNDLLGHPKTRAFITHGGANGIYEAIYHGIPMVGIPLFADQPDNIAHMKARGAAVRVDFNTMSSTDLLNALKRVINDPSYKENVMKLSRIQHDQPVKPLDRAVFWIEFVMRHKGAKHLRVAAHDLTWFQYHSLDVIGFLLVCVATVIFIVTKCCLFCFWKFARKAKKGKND
Experimental: The inhibition of UGT1A9 and UGT2B7 by NAF enantiomer was investigated using the pooled HLM, UGT1A9, and UGT2B7 with concentrations similar to that of the NAF enantiomer. Propofol, which was used as the specific substrate of UGT1A9, was added to the incubation. […] Inhibitor constants (Ki value) were estimated by fitting the expressions for competitive, non-competitive, and mixed inhibition models with Dixon plots and Lineweaver–Burk plots.

[4] = target: T4, recombinant human UGT1A10 (Homo sapiens, UniProt Q9HAW8); assay: UGT reaction screening of NAF enantiomers, UGT1A10; conditions: 10 μM substrate, 45 min
T4 sequence (Q9HAW8 26-530): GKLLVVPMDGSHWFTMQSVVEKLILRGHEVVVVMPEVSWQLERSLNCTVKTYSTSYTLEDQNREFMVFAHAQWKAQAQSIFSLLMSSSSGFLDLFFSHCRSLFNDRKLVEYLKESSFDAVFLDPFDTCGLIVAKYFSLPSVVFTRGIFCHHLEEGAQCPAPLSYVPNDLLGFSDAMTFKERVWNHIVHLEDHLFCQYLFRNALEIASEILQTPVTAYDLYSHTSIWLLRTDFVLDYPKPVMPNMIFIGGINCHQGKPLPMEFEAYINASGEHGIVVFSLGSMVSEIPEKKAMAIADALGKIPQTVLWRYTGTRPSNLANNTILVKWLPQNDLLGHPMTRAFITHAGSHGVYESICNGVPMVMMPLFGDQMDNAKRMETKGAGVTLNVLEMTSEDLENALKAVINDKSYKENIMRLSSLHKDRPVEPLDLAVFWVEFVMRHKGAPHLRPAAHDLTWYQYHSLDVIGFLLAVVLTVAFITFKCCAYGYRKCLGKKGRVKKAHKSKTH

| Kinetics type [1] | inhibition at 100 μM [2] [%] | Inhibition type [3] | Glucuronide formation by UGT1A10 [4] | Structure (SMILES) |
| --- | --- | --- | --- | --- |
| substrate inhibition model | > 75 | Competitive | No R(+)-NAF-G was detected | COc1ccccc1N1CCN(C[C@@H](O)COc2cccc3ccccc23)CC1 [R(+)-NAF] |
| substrate inhibition model | > 75 | Competitive | no activity | COc1ccccc1N1CCN(C[C@H](O)COc2cccc3ccccc23)CC1 [S(-)-NAF] |
